The values that follow come from a melting point compilation (Tetko et al.).

Each structure is given as a SMILES string.

`O=C1NC(=O)C(CCSSCCC2NC(=O)NC2=O)N1` (centres undefined) showed a melting point of 236 to 238 °C. `N#Cc1cccc(Br)c1N=C=O`: the melting point is 64 to 66 °C.

The molecule `Cc1ccnc(NC2CCCCC2)c1` showed a melting point of 75 to 77 °C. The molecule `CC(C)(C)OC(=O)NCC#Cc1ccc(OCc2ccccc2)cc1` came in with a melting point of 104 to 106 °C. In the case of `Cc1ccccc1CCNC(=O)CCl` it was 68 to 70 °C; in that of `O=C(O)CNC(=O)c1ccncc1`, 230 to 232 °C. In the case of `CC(O)c1ccc(-n2cncn2)cc1` (centres undefined) it was 90 to 92 °C; in that of `Nc1ccccc1CN1CCSCC1`, 72 to 74 °C. In turn, `CC(=O)Nc1ccccc1C=O` yielded a melting point of 67 to 69 °C. `C#Cc1nc2ccccc2n1C` came in with a melting point of 82 to 84 °C. `NS(=O)(=O)N1CCCCC1`: the melting point was in the range of 121 to 123 °C. For `NC(=S)CN1C(=O)CCC1=O` the value was 156 to 158 °C. Regarding `Cc1cc(C)cc(-n2c(C)cc(C(=O)O)c2C)c1`, the melting point lay within 169 to 171 °C. In the case of `Cc1c(C(=O)O)cnn1CCOC1CCCCO1` (centres undefined) it was 139 to 141 °C.

In turn, `O=C(O)c1ccc([N+](=O)[O-])cc1I` had a melting point of 139 to 141 °C. As to `NC(=O)c1ccc(CSc2ncccc2C(=O)O)cc1`, the melting point was in the range of 291 to 293 °C. As for `NC(=O)COCc1ccccc1`, the melting point was in the range of 92 to 94 °C. Take `CC(C)COc1ccc(C(C)(C)C(=O)O)cc1`: the melting point fell in the range of 107 to 109 °C.

Regarding `CC(C)(C)NCCC(N)=O`, the melting point was 95 to 97 °C. As for `O=C(O)c1ccc(Cl)c(S(=O)(=O)NCC2CCCO2)c1` (centres undefined), the melting point lay within 207 to 209 °C. `CCOC(=O)c1nc(NCCc2ccccc2)sc1C` gave a melting point of 109 to 111 °C. In the case of `Cc1cc([N+](=O)[O-])sc1Br`, the melting point was 37 to 39 °C. `Cc1nc(Cl)sc1C(=O)O` registered a melting point of 149 to 151 °C. `CC(C)(C(=O)O)c1ccc2c(c1)OCCO2` returned a melting point of 125 to 127 °C.

The molecule `CCOC(C)c1ncc(C(=O)O)s1` (centres undefined) gave a melting point of 112 to 114 °C.

`N#Cc1cccc(Oc2ccc(N)cn2)c1` yielded a melting point of 104 to 106 °C. For `Cc1cc2ncn(Cc3ccc(F)cc3)c2cc1C` the value was 135 to 137 °C; for `OC1CCNCc2ccccc21` (centres undefined), 139 to 141 °C.

For `COc1ccc(C(C)=O)cc1-c1cccc(C(F)(F)F)c1`, the melting point was in the range of 76 to 78 °C.

For the molecule `COC(=O)c1nc[nH]n1`, the melting point was in the range of 180 to 182 °C. In the case of `CCC(NC(N)=O)C(=O)O` (centres undefined) it was 174 to 176 °C; in that of `Cc1cc(C(=O)O)cc(C)c1OCc1cccnc1`, 182 to 184 °C; in that of `Cc1ccc(-c2cnc(-c3ccccc3C(=O)O)o2)cc1`, 219 to 221 °C. Turning to `O=C(O)c1cccnc1Oc1ccccc1Br`, the melting point is 166 to 168 °C. In the case of `O=C(O)C=Cc1ccc([N+](=O)[O-])o1`, the melting point lay within 230 to 232 °C. The molecule `CS(=O)(=O)CCC1NC(=O)NC1=O` (centres undefined) registered a melting point of 160 to 162 °C. For `O=C(O)c1ccc(CNC(=O)c2cccs2)cc1` the value was 209 to 211 °C; for `O=C(Cc1cccc(F)c1)c1cccc(F)c1`, 49 to 51 °C.

For `COC(=O)c1ccc(S(=O)(=O)Cl)c(C)c1`, the melting point fell in the range of 51 to 53 °C.

As for `COc1ccccc1-c1nnc(CCl)o1`, the melting point fell in the range of 86 to 88 °C.

Molecule `COc1cccc(CNC(=O)n2ccnc2)c1` had a melting point of 98 to 100 °C. The molecule `CC(C)(C)OC(=O)N[C@@H]1CCCCC[C@H]1N` returned a melting point of 72 to 74 °C. Molecule `Cc1cc(N)c(N)cc1C` returned a melting point of 127 to 129 °C.

With `Cc1cc(C(=O)O)c(C)n1C(C)c1ccccc1` (centres undefined), the melting point was 135 to 137 °C. With `NC(=O)C1(Br)CCC1`, the melting point lay within 150 to 152 °C. For `O=C(c1ccc(Cl)c([N+](=O)[O-])c1)N1CCCCC1` the value was 74 to 76 °C. Take `CC(C)c1noc2nc(C3CC3)cc(C(=O)O)c12`: the melting point lay within 178 to 180 °C. On to `CC(C)NC(C)(C)CO`, for which the melting point fell in the range of 42 to 44 °C.

Regarding `CC(N)c1cccc(O)c1` (centres undefined), the melting point lay within 166 to 168 °C. Molecule `O=Cc1cc(Cl)cc2c1OCC2` yielded a melting point of 85 to 87 °C. In turn, `Nc1c(C(=O)O)ccc(Cl)c1Cl` displayed a melting point of 235 to 237 °C. The molecule `Cc1ccc(NC(=O)C=NO)cc1` had a melting point of 145 to 147 °C. Turning to `N#Cc1ccc(NC(=O)OCC(F)(F)F)cc1`, the melting point lay in the range of 143 to 145 °C. Turning to `COc1ccc(S(=O)(=O)Cl)cc1CC(=O)O`, the melting point fell in the range of 149 to 151 °C. For `CC(C)(C)C(=O)N1CCC(=O)CC1` the value was 94 to 96 °C; for `C=CCNC(=O)c1ccccc1N`, 92 to 94 °C. The molecule `N#CCNc1cccc(F)c1` had a melting point of 39 to 41 °C. In the case of `O=C(O)C1Cc2cccc(F)c2O1` (centres undefined) it was 126 to 128 °C.

Consider `Nc1ccc(Cl)cc1C(=O)Nc1ccncc1`, for which the melting point lay within 169 to 171 °C. In turn, `O=C(CN1CCNCC1)Nc1ccc(F)cc1` returned a melting point of 72 to 81 °C. `NS(=O)(=O)c1ccc(-c2ccc(Br)cc2)cc1` had a melting point of 207 to 209 °C. For the molecule `CCCCCS(=O)(=O)CC(=O)O`, the melting point is 69 to 71 °C. Molecule `O=c1[nH]c2ccc(NCc3ccccc3)cc2[nH]1` had a melting point of 242 to 244 °C. In the case of `O=C(O)c1cc2ccccc2c(Cl)n1` it was 202 to 204 °C; in that of `N#CCCC(=O)c1cccnc1`, 71 to 73 °C; in that of `CC(=O)N(C)c1ccc(S(=O)(=O)Cl)cc1`, 133 to 135 °C. Take `CNc1scnc1C(=O)O`: the melting point is 99 to 101 °C.

In turn, `Cc1cc(=O)n2nc(N)sc2n1` showed a melting point of 335 to 337 °C. `CN(C)c1c(F)cc(C(=N)N)cc1F` yielded a melting point of 95 to 97 °C. In turn, `CC(=O)c1sc(-c2ccc(O)cc2)nc1C` returned a melting point of 133 to 135 °C. As for `O=C(CC(F)(F)F)c1ccc(F)cc1`, the melting point was in the range of 29 to 31 °C. `CC(=O)c1ccc(Cl)c(F)c1`: the melting point lay in the range of 39 to 41 °C. Take `NC(=O)C(F)(F)c1ccccc1`: the melting point is 116 to 118 °C.

As to `COC(=O)c1cccc(CC(=O)O)c1`, the melting point lay within 74 to 76 °C. For `CCNC(=O)c1ccc(NC2CCOCC2)c(C)c1` the value was 195 to 197 °C; for `O=C(O)c1cccc(CN2C(=O)c3ccccc3C2=O)c1`, 202 to 212 °C. Molecule `Cc1cc(C)n(-c2ccc(C(=O)O)cn2)n1` returned a melting point of 241 to 243 °C. For `COc1ccc2nc(C)cc(O)c2c1` the value was 284 to 286 °C; for `N#CC1(N2CCN(C(=O)CCl)CC2)CCCCC1`, 97 to 99 °C. In turn, `O=C(O)c1cccc(Nc2cnccn2)c1` came in with a melting point of 239 to 241 °C.

With `CN1C(=O)CCC(C(=O)O)C1c1ccccc1` (centres undefined), the melting point lay within 204 to 206 °C. `c1ccc(C2=NCCN2)nc1` registered a melting point of 149 to 151 °C. On to `COc1n[nH]c(N)c1C#N`, for which the melting point lay in the range of 179 to 181 °C. In the case of `O=C(O)c1nccnc1C(=O)Nc1ccc(F)cc1`, the melting point was 177 to 179 °C. Molecule `O=C(O)CCc1nc2ccccc2[nH]c1=O` had a melting point of 263 to 265 °C. For `COC(=O)c1ccc(CBr)s1` the value was 36 to 38 °C; for `CCC(CC)n1ccc(C(=O)O)n1`, 68 to 70 °C.

Molecule `CN(C)CCn1c(S)nc2ccsc2c1=O` showed a melting point of 192 to 194 °C.

As to `CC(=O)CC(=O)Nc1ccc(F)c(F)c1`, the melting point lay within 92 to 94 °C. `CCOC(=O)c1sc2ncc(C(=O)OC)cc2c1N` displayed a melting point of 213 to 215 °C. Consider `COCC(=O)Nc1ccc(O)cc1`, for which the melting point lay in the range of 139 to 141 °C.

As to `O=C(O)c1cc(N2CCOCC2)ccc1[N+](=O)[O-]`, the melting point lay in the range of 188 to 192 °C. The molecule `O=C(O)CSCC(=O)Nc1cccc(Br)c1` showed a melting point of 63 to 65 °C. For `Fc1cccc2c1CN=C1CCCN12`, the melting point is 71 to 73 °C.

Molecule `Nc1sc2c(c1C(=O)c1ccc(F)cc1)CCC2` registered a melting point of 139 to 141 °C. In the case of `N#Cc1cnn(-c2ncccn2)c1N`, the melting point was 320 to 322 °C. In the case of `NNC(=S)NCC(F)(F)F`, the melting point was 158 to 160 °C. Regarding `O=C(O)c1cc([N+](=O)[O-])c[nH]1`, the melting point lay within 198 to 200 °C. For `Cc1ccc(NN)nn1` the value was 107 to 109 °C; for `Cn1ncc2c(O)c(C(=O)O)cnc21`, 193 to 195 °C. With `CCn1c(S)nnc1-c1ccc(Cl)cc1`, the melting point was 211 to 213 °C.

Take `N#Cc1cc(C(N)=O)c[nH]1`: the melting point fell in the range of 245 to 247 °C. Molecule `N#Cc1ccc(Cl)cc1NCC1CCOC1` (centres undefined) came in with a melting point of 114 to 116 °C. In turn, `COc1ccc2c(c1)NC(=O)CCC2` gave a melting point of 127 to 129 °C. For `O=C(O)Cc1csc(-c2ccc(Cl)cc2Cl)n1` the value was 159 to 161 °C. For `NCc1ccc(OCC(N)=O)cc1` the value was 106 to 108 °C; for `COc1cc(C=O)ccc1OCc1ccc(F)cc1`, 77 to 81 °C.

With `Cc1cc(N)nn1-c1ccc(Cl)cc1`, the melting point was in the range of 100 to 102 °C. `Sc1nc2c(s1)CCCC2` registered a melting point of 119 to 121 °C.

`Nc1nc(N)nc(CO)n1` yielded a melting point of 269 to 271 °C. `COc1cc(C)cc2c(C)c(C(C)N)oc12` (centres undefined) gave a melting point of 56 to 58 °C. `Cc1c(C(=O)O)cnn1C(C)(C)C` gave a melting point of 132 to 134 °C. Consider `CCC(C)C(=O)NN` (centres undefined), for which the melting point was 88 to 90 °C. In turn, `CC(C)C1(C)NC(=O)NC1=O` (centres undefined) showed a melting point of 176 to 178 °C.

In turn, `O=[N+]([O-])c1ccc(-c2nc(CCl)co2)cc1` yielded a melting point of 119 to 121 °C. Molecule `C=CCc1cc(C(=O)OC)cc(OC)c1O` returned a melting point of 76 to 78 °C. The molecule `COc1ccc(C2(C)NC(=O)N(NC(=O)CCl)C2=O)cc1` (centres undefined) registered a melting point of 124 to 126 °C. Molecule `NC1(c2nc(C(=O)O)c[nH]2)CCC1` registered a melting point of 273 to 275 °C. Consider `Cc1cccc(F)c1C(=O)O`, for which the melting point was in the range of 114 to 116 °C. In turn, `Cc1ccc(N)cc1S(=O)(=O)N1CCCCC1` gave a melting point of 105 to 107 °C.

In the case of `Cc1ccc(C(=O)c2c(N)sc3c2CCC3)cc1F`, the melting point was in the range of 177 to 179 °C.

For the molecule `O=Cc1csc(-c2ccc(Cl)cc2)n1`, the melting point is 124 to 126 °C. Consider `Cc1c(C(=O)O)nnn1-c1ccc(OC(C)C)cc1`, for which the melting point lay in the range of 159 to 161 °C. As to `Cn1cc(C=O)c(=O)n(C)c1=O`, the melting point lay within 121 to 123 °C.

A word on the melting point: it is the temperature of the solid-liquid transition.
